Where two headings read alike, the source gives them in different places. Marks after values point to notes of the source that are not given here.
Columns and labels:
K-562 cells = assay: Viability of transformed cells, trypan blue exclusion; type: cell-based, human; settings: 12 μg/ml, 18 hours
Method: (§1) Mouse mastocytoma (P-815), myeloma (Z-P3x63Ag8.653 and Pai) and human erthyroleukemia (K-562) cell lines were used. Primary cultures of normal mouse hepatocytes were isolated from mouse liver using collagenase. Mouse splenocytes were isolated using a glass homogenizer. Marrow cells were obtained by washing the bone marrow. See, for example, Shears, S. B. and Kirk, C. J. (1984), Biochem. J. 219:375-382.
(§2) Cells were cultured in RPMI-1640 medium supplemented with 10% fetal calf serum, 100 mM L-glutamine and 50 μg/ml gentamycin at 37° C. under 5% CO2. Cells were seeded into 24-well plates at a density of 50,000 cells/well and grown until near confluency, approximately 2 days, then transferred to 96-well plates at the same density. […] Viability of the cells was determined by trypan blue exclusion. […] Approximately 25% of K-562 and X-653 cells survived at a concentration of 12 μg/ml, and the same proportion of P-815 cells survived at a concentration of about 25 μg/ml.

P-815 cells = assay: Proliferation of transformed cells, 3H-thymidine incorporation; type: cell-based, mouse; settings: 3H-thymidine 18 hours, FIG. 6
Method: as §1, §2
(§3) The proliferation of the transformed cells was assessed by incubating ^3H-labeled thymidine in the media for 18 hours. At the end of the specified time period, the proliferation was measured by counting the amount of ^3H-thymidine incorporated. Thymidine incorporation provides a quantitative measure of the rate of DNA synthesis, which is typically directly proportional to the rate of cell division.

X-653 cells = assay: as above; type: cell-based, mouse; settings: 3H-thymidine 18 hours, FIG. 6
Method: as §1, §2, §3

marrow cells = assay: Viability of primary cultures of normal cells, trypan blue exclusion; type: cell-based, mouse; settings: 18 hours
Method: as §1, §2
Viability was measured by trypan blue exclusion. […] At a concentration of 320 μg/ml, the number of viable splenocytes was reduced by 50% in comparison to the control. At concentrations of 640 μg/ml and 1280 μg/ml, 40% and 10%, respectively, of the splenocytes were still viable. At these same concentrations, approximately 50% and 25% of hepatocytes were still viable. Marrow cells were more sensitive to dimethylaminoarglabin hydrochloride. At a concentration of 160 μg/ml, only about 50% of the marrow cells were still viable. Increasing the concentration to 320 μg/ml reduced the viability to about 25%.

[1] = in vivo
Method: Maximum tolerable doses (MTD) of arglabin and derivatives were determined by daily intraperitoneal administration to rats, guinea pigs or mice and daily intravenous administration to rabbits over a period of five to 20 days.

Sarcoma-45 = assay: Inhibition of tumor growth in implanted tumors; type: in vivo, rats
Sarcoma-37 = assay: Inhibition of tumor growth in implanted tumors; type: in vivo, mice and rats; settings: dose 30 mg/kg
Leucemia P-388 = assay: Implanted leukemia, inhibition / survival; type: in vivo, mice and rats
[2] = test system: Sarcoma-45 resistant to 5-fluorouracil; assay: Inhibition of growth of resistant tumour strains; type: in vivo, rats; settings: dose 50 mg/kg
[3] = test system: Sarcoma-45 resistant to sarcolysin; assay: Inhibition of growth of resistant tumour strains; type: in vivo, rats; settings: dose 50 mg/kg
[4] = test system: Sarcoma-45 resistant to prospidine; assay: Inhibition of growth of resistant tumour strains; type: in vivo, rats; settings: dose 50 mg/kg
immune system [5] = assay: Immunological indices in August rats with Pliss lymphosarcoma; type: in vivo; settings: Increased; about 50 mg/kg IP daily for 10 days
Text: Additional immunological data were obtained from an “August” line of rats, weighing 140-160 g, with and without Pliss lymphosarcoma. […] Results are summarized in Table V. Overall, lyophilized-dimethylaminoarglabin hydrochloride stimulated delayed type hypersensitivity, but reduced all other studied indices in intact rats. In rats with Pliss Lymphosarcoma, the immune system was stimulated, as all studied indices increased.

immune system [6] = assay: Immunologic status of patients of the first clinical trial, rozette-formation and phagocytosis; type: in vivo, human
Method: Immunologic status of the patients was evaluated using standard methods of rozette-formation and phagocytosis. These indices were studied prior to treatment, during treatment and after treatment. Blood samples were taken from a finger. […] A general change in the ratio of T-helper lymphocytes to T-suppressor lymphocytes was due to an increase of T-suppressor lymphocytes. […] Total number of leukocytes increased up to 9.4×10^9/L and the total number of lymphocytes increased as well. The levels of all types of immunoglobulins increased.
By day 20 of treatment, all indices returned to normal. In some patients, indices returned to normal by day 14. In patients that were analyzed 30 days after treatment, a significant increase in the number of T-lymphocytes and adhesiveness of neutrophils was observed.

stage IV cancer = assay: Second clinical trial, 72 patients; type: in vivo, human
Text: A three to six month lag in dimethylaminoarglabin hydrochloride production halted the first clinical trial. […] Among the patients, 25% had carcinoma of the stomach, 16.7% had liver cancer, 18.1% had lung cancer and the remaining 40.2% had esophageal, breast, ovarian, pancreatic, brain or lymphosarcoma. Patients with poorer states had metastases to the liver (25%), retroperitoneal lymph nodes (25), ascites (22.2%) and exudative pleuritis (11.1%).

cancer = assay: Case records of selected patients, monochemotherapy; type: in vivo, human
Text: The following are abstracts from the case records of selected patients, who received dimethylaminoarglabin hydrochloride monochemotherapy.

[7] = Ability to keep normal activities, minimum signs of the disease
[8] = Maintains themself, but is not able to work
[9] = Needs occasional assistance, but is able to maintain themself
[10] = Normal activities are hardly performable, some signs of the disease

Question: Which cells survived (K-562 cells) does the source give for `CC1=CCC23OC2(C)CCC2C(CN(C)C)C(=O)OC2C13.Cl` (centres unmarked) [Dimethylaminoarglabin hydrochloride] here?
Answer: Approximately 25%

Question: And the “concentration at which proliferation was effectively blocked” value (P-815 cells)?
Answer: 12 µg/mL

Question: What about the “concentration at which proliferation was effectively blocked” value (X-653 cells) of the same compound?
Answer: 6 µg/mL

Question: What about the “marrow cells still viable” value (marrow cells; 160 μg/ml) of the same compound?
Answer: approximately 50%

Question: And the marrow cells viability (marrow cells; 320 μg/ml)?
Answer: about 25%

Question: And the “maximum dosage (MTD)” value ([1]; guinea pig)?
Answer: 45 mg/kg

Question: And the “maximum dosage (MTD)” value ([1]; mouse)?
Answer: 30 mg/kg

Question: And the “maximum dosage (MTD)” value ([1]; rabbit)?
Answer: 20 mg/kg

Question: And the “maximum dosage (MTD)” value ([1]; rat)?
Answer: 50 mg/kg

Question: What about the “Inhibition of Tumour Growth, % - Sarcoma-45” value (Sarcoma-45; dose 30 mg/kg) of the same compound?
Answer: 86.5*** %

Question: What about the “Inhibition of Tumour Growth, % - Sarcoma-45” value (Sarcoma-45; dose 50 mg/kg) of the same compound?
Answer: 83.1** %

Question: And the “Inhibition of Tumour Growth, % - Sarcoma-37” value (Sarcoma-37)?
Answer: 78.2* %

Question: And the “Leucemia P-388 PALT - increase in survival” value (Leucemia P-388; dose 30 mg/kg)?
Answer: +144%

Question: And the “Leucemia P-388 PALT - increase in survival” value (Leucemia P-388; dose 50 mg/kg)?
Answer: +109.0%

Question: And the “Inhibition of Tumour Strains Growth, % - Resistant Forms - Sarcoma-45 to 5-fluorouracil” value [2]?
Answer: 62.3%

Question: What about the “Inhibition of Tumour Strains Growth, % - Resistant Forms - Sarcoma-45 to sarcolysin” value [3] of the same compound?
Answer: 90.1*** %

Question: And the “Inhibition of Tumour Strains Growth, % - Resistant Forms - Sarcoma-45 to prospidine” value [4]?
Answer: 87.4*** %

Question: And the “Delayed type hypersensitivity, Rats with Pliss Lymphosarcoma After Treatment” value (immune system [5])?
Answer: 89.9-132.2%

Question: And the “Hemagglutination (RHG), Rats with Pliss Lymphosarcoma After Treatment” value (immune system [5])?
Answer: 82.2-142.6%

Question: What about the “Nitroblue tetrazolium (NBT), Rats with Pliss Lymphosarcoma After Treatment” value (immune system [5]) of the same compound?
Answer: 79.2-175.4%

Question: And the “Spontaneous-erythrocyte rosette forming (E-ROK), Rats with Pliss Lymphosarcoma After Treatment” value (immune system [5])?
Answer: 94.8-162.5%

Question: And the neutrophil adhesiveness (immune system [6]; days 3-5 of treatment, decreased from 42%)?
Answer: 28.5%

Question: What about the undifferentiated lymphocytes (immune system [6]; days 3-5 of treatment, increased from 21.5%) of the same compound?
Answer: 42.2%

Question: And the “number of T-helper lymphocytes” value (immune system [6]; days 3-5 of treatment, reduced from 50%)?
Answer: 37.3%

Question: And the “number of T-lymphocytes” value (immune system [6]; days 3-5 of treatment, reduced from 57%)?
Answer: 40.1%

Question: And the “total number of leukocytes increased up to” value (immune system [6]; during treatment)?
Answer: up to 9.4 ×10^9/L

Question: What about the “patients with no response” value (stage IV cancer; 8 of 72) of the same compound?
Answer: 11.1%

Question: What about the “patients responded to therapy” value (stage IV cancer; 64 of 72) of the same compound?
Answer: 88.9%

Question: And the “% of Patients - Absence of dynamics or stabilization” value (stage IV cancer; 72 patients)?
Answer: 31.9%

Question: What about the “% of Patients - Partial regression over or equal to 50% decrease of tumor or metastasis” value (stage IV cancer; 72 patients) of the same compound?
Answer: 61.1%

Question: What about the “% of Patients - Progression” value (stage IV cancer; 72 patients) of the same compound?
Answer: 7.0%

Question: And the “Number of Patients % - Karnofsky scale 90” value (stage IV cancer; [7])?
Answer: 41.7%

Question: What about the “Number of Patients abs, N - Karnofsky scale 90” value (stage IV cancer; [7]) of the same compound?
Answer: 30

Question: And the “Thrombocytes, mean index of peripheral blood” value (stage IV cancer; After Treatment (before treatment 2.0))?
Answer: 2.8 thsd

Question: What about the “Erythrocytes, mean index of peripheral blood” value (stage IV cancer; After Treatment (before treatment 2.3-3.0)) of the same compound?
Answer: 3.0 10^12/l-10^9/l

Question: What about the “Leukocytes, mean index of peripheral blood” value (stage IV cancer; After Treatment (before treatment 4.5-5.5)) of the same compound?
Answer: 4.0 10^12/l-10^9/l

Question: What about the “Lymphocytes, mean index of peripheral blood” value (stage IV cancer; After Treatment (before treatment 8-15)) of the same compound?
Answer: 15-20

Question: What about the “Thrombocytes, mean index of peripheral blood” value (stage IV cancer; During Treatment (before treatment 2.0)) of the same compound?
Answer: 2.3 thsd

Question: And the “Erythrocytes, mean index of peripheral blood” value (stage IV cancer; During Treatment (before treatment 2.3-3.0))?
Answer: 2.4-3.0 10^12/l-10^9/l

Question: And the “Leukocytes, mean index of peripheral blood” value (stage IV cancer; During Treatment (before treatment 4.5-5.5))?
Answer: 3.5-4.0 10^12/l-10^9/l

Question: And the “Lymphocytes, mean index of peripheral blood” value (stage IV cancer; During Treatment (before treatment 8-15))?
Answer: 28-35

Question: What about the “Number of Patients % - Karnofsky scale 30” value (stage IV cancer; Extreme invalidism) of the same compound?
Answer: 4.2%

Question: What about the “Number of Patients abs, N - Karnofsky scale 30” value (stage IV cancer; Extreme invalidism) of the same compound?
Answer: 3

Question: And the “Number of Patients % - Karnofsky scale 70” value (stage IV cancer; [8])?
Answer: 33.3%

Question: And the “Number of Patients abs, N - Karnofsky scale 70” value (stage IV cancer; [8])?
Answer: 24

Question: And the “Number of Patients % - Karnofsky scale 60” value (stage IV cancer; [9])?
Answer: 6.9%

Question: And the “Number of Patients abs, N - Karnofsky scale 60” value (stage IV cancer; [9])?
Answer: 5

Question: What about the “Number of Patients % - Karnofsky scale 80” value (stage IV cancer; [10]) of the same compound?
Answer: 13.9%

Question: What about the “Number of Patients abs, N - Karnofsky scale 80” value (stage IV cancer; [10]) of the same compound?
Answer: 10

Question: What about the side effects (stage IV cancer; patients, hydrochloride) of the same compound?
Answer: No side effects

Question: What about the “condition of patient with brain tumor” value (cancer; Patient A, case number 543, after the first course) of the same compound?
Answer: condition was stabilized

Question: And the “infiltration of the right breast decreased” value (cancer; Patient M, case number 305, breast cancer, 5 courses)?
Answer: 50%

Question: What about the “outcome of liver cancer” value (cancer; patient, case number N2225, embryonal carcinoma of the liver, 120 mg IV daily) of the same compound?
Answer: complete recovery

From patent US6770673B1, “Therapeutic uses of arglabin in combination with other chemotherapy agents” (priority 1997, dated 2004)
